Experimental data from patent publication US7700728B2, “Use of chimeric receptors in a screening assay for identifying agonists and antagonists of cell receptors” (Schering Corporation, priority 2005, dated 2010).

What was measured:
[1] = molecular target: T1, chimeric TLR3/CD32a receptor (Homo sapiens, UniProt O15455); test: Calcium mobilization in U937 cells transiently transfected with pTLR3/CD32a; format: cell-based
T1 construct: expressed in transfected cells; host or cells: U937 cells, transiently or stably transfected with pTLR3/CD32a (pMET7 vector)
T1 sequence (O15455 with tags, fused parts or gaps): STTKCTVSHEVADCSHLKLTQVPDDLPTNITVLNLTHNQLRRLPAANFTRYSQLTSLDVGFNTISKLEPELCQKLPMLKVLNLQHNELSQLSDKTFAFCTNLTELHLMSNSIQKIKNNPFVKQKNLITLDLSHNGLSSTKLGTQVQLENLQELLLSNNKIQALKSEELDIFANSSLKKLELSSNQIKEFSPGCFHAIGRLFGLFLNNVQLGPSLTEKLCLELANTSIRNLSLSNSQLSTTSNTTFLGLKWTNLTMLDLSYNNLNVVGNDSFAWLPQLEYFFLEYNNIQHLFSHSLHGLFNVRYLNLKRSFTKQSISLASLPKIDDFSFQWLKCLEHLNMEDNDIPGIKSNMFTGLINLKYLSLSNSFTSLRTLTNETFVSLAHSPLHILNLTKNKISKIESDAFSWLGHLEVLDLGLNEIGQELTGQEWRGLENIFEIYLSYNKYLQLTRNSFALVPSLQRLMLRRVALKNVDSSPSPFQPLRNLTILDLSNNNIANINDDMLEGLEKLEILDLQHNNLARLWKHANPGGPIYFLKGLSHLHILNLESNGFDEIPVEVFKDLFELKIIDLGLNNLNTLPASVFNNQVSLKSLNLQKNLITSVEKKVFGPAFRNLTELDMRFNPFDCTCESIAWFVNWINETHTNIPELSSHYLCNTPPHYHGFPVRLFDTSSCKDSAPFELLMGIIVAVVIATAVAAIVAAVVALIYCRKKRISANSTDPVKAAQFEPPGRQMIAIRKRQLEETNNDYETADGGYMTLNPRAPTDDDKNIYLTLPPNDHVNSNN
Source text: (§1) The hematopoietic cell line U937 was used for further biological investigation because of the ability of this cell line to display calcium mobilization upon cross-linking of endogenous CD32a using anti-CD32a antibodies followed by secondary antibody (as detected by fluorimetry following loading of the cells with Indo-1 or Fluo-4). Thus, U937 cells express all of the cellular components required for calcium mobilization mediated through CD32a activation.
(§2) Transient transfection of the pTLR3/CD32a and pTLR2/CD32a expression vectors into U937 allowed high level cell surface expression of the chimeric molecule as detected with anti-TLR3 or anti-TLR2 antibodies, while no expression was observed on untransfected cells or cells transfected with the other chimeric vector.
Poly-IC, a synthetic double-stranded RNA ligand for TLR3, was then tested for its ability to stimulate the chimeric TLR3/CD32a receptor. Poly(I) (15, 30 and 40 mers) and poly(C) (15, 30 and 40 mers) (Ambion, Huntingdon, Cambridgeshire, U.K. and Invitrogen, Cergy Pontoise, France respectively) were annealed in equal proportions according to their size for 15 minutes at 95° C. Independently, fragmentation of high molecular weight poly-IC (>5000 bp) was performed by metal-induced hydrolysis as recommended by Affymetrix (High Wycombe, UK). Briefly, 200 μg poly-IC was incubated with 40 μl of 5×RNA fragmentation buffer (200 mM Tris-acetate, pH 8.1, 500 mM KOAc, 150 mM MgOAc) in a final volume of 200 μl, for 35 min at […]. Fragmented poly-IC (100-200 bp) was then allowed to reach room temperature before purification. The relative sizes of dsRNA fragments were examined by electrophoresis in 2% agarose gel.

[2] = test system: chimeric TLR2/CD32a receptor; test: Calcium mobilization in untransfected U937 cells or cells transfected with pTLR2/CD32a (specificity control); format: cell-based, human
Source text: as §1, §2

PBMC = test: Cytokine induction in PBMC; format: cell-based
[3] = molecular target: T1, chimeric TLR3/CD32a receptor; test: Calcium mobilization in U937 clones stably transfected with pTLR3/CD32a; format: cell-based
Source text: U937 cells were stably transfected with pTLR3/CD32a using co-transfection with an antibiotic-encoding plasmid and antibiotic selection followed by limiting dilution cloning. Clones were selected based on their cell surface expression level of TLR3. […] These clones expand very easily (up to 10^9 cells) and can be maintained for several months in culture without losing the expression of the chimeric receptor. […] Such stable clones provide a useful method for high through-put screening of candidate agents for the identification of TLR agonists and antagonists.

[4] = test system: chimeric TLR3/CD32a receptor lacking two N-glycosylation sites (N196 and N247); test: NFκB luciferase reporter in HEK 293 cells co-transfected with chimeric TLR3/CD32a lacking two N-glycosylation sites; format: cell-based, human
Source text: In order to determine the role of glycosylation in ligand recognition by TLR3, a chimeric TLR3/CD32a receptor lacking two N-glycosylation sites (N196 and N247 as numbered at Genbank Acc. No. NP_003256) was generated by site-directed mutagenesis and co-transfected into HEK 293 cells with a reporter plasmid containing concensus NFκB sites which, when activated, directs the expression of firefly luciferase.

[5] = molecular target: T1, chimeric TLR3/CD32a receptor; test: Effect of extracellular pH on calcium mobilization in U937 cells expressing chimeric TLR3/CD32a; format: cell-based; conditions: pH range 5.5-7.5
Source text: Wild type TLR3 has previously been described as an intracellular receptor, at least in dendritic cells (DC), and interaction with its ligand occurs in early endosomes. […] U937 cells expressing the chimeric human TLR3/CD32a receptor at the cell surface were used to investigate the effect of the extracellular pH on poly-IC-mediated calcium mobilization.

Chain of chimeric TLR2/CD32a receptor (as listed by the source, change not shown): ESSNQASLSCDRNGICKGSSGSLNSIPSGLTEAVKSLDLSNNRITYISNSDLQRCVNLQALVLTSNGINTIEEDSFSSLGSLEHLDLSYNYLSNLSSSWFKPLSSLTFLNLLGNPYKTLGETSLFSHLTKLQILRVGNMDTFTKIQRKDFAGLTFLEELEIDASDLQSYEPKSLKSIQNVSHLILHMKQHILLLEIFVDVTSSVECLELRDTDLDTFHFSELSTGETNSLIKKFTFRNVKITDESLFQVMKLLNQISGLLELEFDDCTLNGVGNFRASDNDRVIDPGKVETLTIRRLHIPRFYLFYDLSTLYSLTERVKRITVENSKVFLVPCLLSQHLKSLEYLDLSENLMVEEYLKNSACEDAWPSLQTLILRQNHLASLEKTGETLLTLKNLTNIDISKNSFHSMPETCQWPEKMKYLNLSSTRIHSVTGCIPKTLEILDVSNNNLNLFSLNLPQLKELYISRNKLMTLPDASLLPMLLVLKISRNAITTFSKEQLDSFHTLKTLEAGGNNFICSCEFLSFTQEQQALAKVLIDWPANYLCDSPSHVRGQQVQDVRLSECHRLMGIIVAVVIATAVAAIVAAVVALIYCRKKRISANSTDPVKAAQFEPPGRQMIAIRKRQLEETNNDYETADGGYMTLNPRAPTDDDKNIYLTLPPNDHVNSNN

- dose required to detect biological response (calcium mobilization) ([1]; dose response, transiently transfected U937): 0.025 μg/ml
- sensitivity in dose response (calcium mobilization) ([3]; stable U937 clones): 10 to 30 ng/mL
- calcium mobilization ([3]; stable U937 clones with cell surface expression of the chimeric receptor): robust calcium mobilization
- pH required for optimal response (calcium mobilization) [5]: 6.5
- pH that prevented biological response (calcium mobilization) [5]: ≥ 7.2
Substance: poly-IC
- calcium mobilization ([1]; U937 transiently transfected with pTLR3/CD32a, fluorimetry with Indo-1 or Fluo-4): immediate calcium mobilization of similar intensity to that induced by anti-TLR antibodies
- response to a second stimulation after sequential stimulation ([1]; optimal concentration, second stimulation with poly-IC or anti-TLR3-mediated cross-linking): desensitization
- calcium mobilization [2]: no calcium mobilization
- dose required to detect cytokine induction (PBMC): 2.5 µg/mL
- activity on mutant TLR3 (NFκB luciferase reporter) [4]: completely inactive
